Results published in patent US4923697A, “Antioxidant compositions and methods” (Bar-Ilan University, priority 1986, dated 1990).

tested on: skin of adult mice; assay: TBA test of peroxide level in skin of adult shaved mice; format: in vivo, mouse; conditions: 0.1% in Oil of Olay
From the text: Samples of creams and appropriate controls were applied to mice or rat skin for a fixed period. The application was done once a day. Experiments were terminated by killing the animal, peeling the skin and freezing it in liquid nitrogen. Samples of the frozen skin were homogenized in 0.2.M phosphate buffer, pH 6.5. After centrifugation, the supernatant was collected and analyzed for the peroxide value using the TBA (thiobarbituric acid) test as described by Sinnhuber et. al, Food Res. 23: 620 (1958).
In these experiments adult mice (2 months old) were treated as described in Example 2. The grown mice were shaved before applying the creams to the skin. In this experiment the antioxidant was dissolved in Oil of Olay. Mice were sacrificed after 21 days.

Q: How did the “reduction of the level of peroxides in the skin” value (from here on “reduction”) turn out when `COc1ccc(O)c(C(C)(C)C)c1` [BHA, butylated hydroxy anisole] was run?
A: Its value is “no reduction of the level of peroxides was observed”.

Q: Which “reduction” value does the source give for `Cc1cc(C(C)(C)C)c(O)c(C(C)(C)C)c1` [BHT, butylated hydroxy toluene] here?
A: The value was “no reduction of the level of peroxides was observed”.

Q: `Cc1c(C)c2c(c(C)c1O)CCC(C)(CCCC(C)CCCC(C)CCCC(C)C)O2` (stereo not drawn) [alpha tocopherol, alpha-tocopherol] was tested. Which “reduction” value did it give?
A: The value was “no reduction of the level of peroxides was observed”.
